Experimental data as given in US11014941B2, “Pyrrolopyrimidine derivatives useful as inhibitors of influenza virus replication” (priority 2017, dated 2021).

target: Influenza PB2 (Influenza A virus, UniProt P03428); assay: biochemical; format: binding; conditions: read-out: Influenza PB2 affinity, IC50
Sequence (P03428 whole entry, looked up): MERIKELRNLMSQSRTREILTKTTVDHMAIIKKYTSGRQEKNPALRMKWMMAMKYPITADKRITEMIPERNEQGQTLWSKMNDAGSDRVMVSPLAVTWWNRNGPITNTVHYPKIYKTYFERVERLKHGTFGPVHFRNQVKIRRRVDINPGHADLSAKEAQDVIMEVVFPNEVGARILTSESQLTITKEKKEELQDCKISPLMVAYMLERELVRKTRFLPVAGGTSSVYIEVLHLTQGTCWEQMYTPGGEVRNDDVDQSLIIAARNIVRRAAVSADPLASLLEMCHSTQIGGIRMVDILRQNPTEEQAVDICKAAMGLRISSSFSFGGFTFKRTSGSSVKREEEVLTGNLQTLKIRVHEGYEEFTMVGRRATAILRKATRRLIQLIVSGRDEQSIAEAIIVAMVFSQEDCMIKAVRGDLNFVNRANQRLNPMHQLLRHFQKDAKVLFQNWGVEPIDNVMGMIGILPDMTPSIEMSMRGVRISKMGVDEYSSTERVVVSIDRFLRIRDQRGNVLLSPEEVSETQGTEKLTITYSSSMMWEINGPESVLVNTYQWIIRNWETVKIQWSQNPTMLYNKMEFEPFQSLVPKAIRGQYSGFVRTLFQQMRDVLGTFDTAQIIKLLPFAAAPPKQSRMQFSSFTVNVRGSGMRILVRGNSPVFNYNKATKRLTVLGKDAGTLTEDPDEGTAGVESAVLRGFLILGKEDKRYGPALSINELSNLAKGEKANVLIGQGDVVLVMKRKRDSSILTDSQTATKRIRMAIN

Row | Structure (SMILES) | IC50 [µM]
1 | CCOC(=O)[C@]1(C)CCCC[C@H]1n1cc(F)c2cnc(-c3c[nH]c4ncc(F)cc34)nc21 [Compound B90] | > 100
2 | C[C@@]1(C(=O)O)CCCC[C@H]1n1cc(F)c2cnc(-c3c[nH]c4ncc(Cl)cc34)nc21 [Compound B91] | < 1
3 | CNC(=O)[C@]1(C)CCCC[C@H]1n1cc(F)c2cnc(-c3c[nH]c4ncc(Cl)cc34)nc21 [Compound B92] | 10 to 100
4 | CNC(=O)[C@@H]1CCCCC1n1cc(F)c2cnc(-c3c[nH]c4ncc(Cl)cc34)nc21 (stereo partly drawn) [Compound B94] | 10 to 100
5 | O=C(N[C@H]1CCC[C@@H](n2cc(F)c3cnc(-c4c[nH]c5ncc(Cl)cc45)nc32)C1)c1ccccn1 [Compound B96] | > 100
6 | CCC(C)(C(=O)NCC(F)(F)F)n1ccc2cnc(-c3c[nH]c4ncccc34)nc21 (stereo not drawn) [Compound B97] | > 100
7 | CCOC(=O)C1=CCCCC1n1cc(F)c2cnc(-c3c[nH]c4ncc(Cl)cc34)nc21 (stereo not drawn) [Compound B98] | > 100
8 | O=C(O)C1=CCCCC1n1cc(F)c2cnc(-c3c[nH]c4ncc(Cl)cc34)nc21 (stereo not drawn) [Compound B99] | < 1
9 | CCOCc1ccc(C(=O)N[C@H]2CCC[C@@H](n3cc(F)c4cnc(-c5c[nH]c6ncc(Cl)cc56)nc43)C2)nc1 [Compound B101] | > 100
10 | O=C(N[C@H]1CCC[C@@H](n2cc(F)c3cnc(-c4c[nH]c5ncc(Cl)cc45)nc32)C1)N1CCc2ccccc21 [Compound B102] | > 100
11 | O=C(O)C1=C(n2cc(F)c3cnc(-c4c[nH]c5ncc(Cl)cc45)nc32)CCCC1 [Compound B103] | < 1
12 | O=C(O)[C@H]1C2CCC(CC2)C1n1ccc2cnc(-c3c[nH]c4ncc(F)cc34)nc21 (stereo partly drawn) [Compound B120] | < 1
13 | CCOC(=O)[C@H]1C2CCC(CC2)[C@@H]1n1ccc2cnc(-c3c[nH]c4ncc(F)cc34)nc21 [Compound B121] | 10 to 100
14 | O=C(O)[C@H]1C2CCC(CC2)C1n1ccc2cnc(-c3c[nH]c4ncc(F)cc34)nc21 (stereo partly drawn) [Compound B122] | 1 to 10
15 | O=C(O)[C@H]1C2CCC(CC2)[C@@H]1n1ccc2cnc(-c3c[nH]c4ncc(F)cc34)nc21 [Compound B123] | 1 to 10
16 | O=C(O)[C@H]1C2CCC(CC2)[C@@H]1n1ccc2cnc(-c3c[nH]c4ncc(Cl)cc34)nc21 [Compound B124] | 1 to 10
17 | CCOC(=O)[C@H]1C2CCC(CC2)[C@@H]1n1cc(Cl)c2cnc(-c3cn(S(=O)(=O)c4ccc(C)cc4)c4ncc(F)cc34)nc21 [Compound B125] | > 100
18 | CCOC(=O)[C@H]1C2CCC(CC2)[C@@H]1n1cc(Cl)c2cnc(-c3c[nH]c4ncc(F)cc34)nc21 [Compound B126] | > 100
19 | O=C(O)[C@H]1C2CCC(CC2)[C@@H]1n1cc(Cl)c2cnc(-c3c[nH]c4ncc(F)cc34)nc21 [Compound B127] | < 1
20 | CCOC(=O)[C@H]1C2CCC(CC2)[C@@H]1n1ccc2cnc(-c3c[nH]c4ncc(Cl)cc34)nc21 [Compound B128] | 10 to 100
21 | CCOC(=O)[C@H]1C2CCC(CC2)[C@@H]1n1cc(F)c2cnc(-c3c[nH]c4ncc(F)cc34)nc21 [Compound B129] | 10 to 100
22 | O=C(O)[C@H]1C2CCC(CC2)[C@@H]1n1cc(Cl)c2cnc(-c3c[nH]c4ncc(Cl)cc34)nc21 [Compound B130] | 1 to 10

Row | Structure (SMILES) | IC50 [µM]
23 | O=C(O)[C@H]1C2CCC(CC2)[C@@H]1n1cc(F)c2cnc(-c3c[nH]c4ncc(F)cc34)nc21 [Compound B131] | < 1
24 | CCOC(=O)[C@H]1C2CCC(CC2)[C@@H]1n1cc(F)c2cnc(-c3c[nH]c4ncc(Cl)cc34)nc21 [Compound B134] | > 100
25 | O=C(O)[C@H]1C2CCC(CC2)[C@@H]1n1cc(F)c2cnc(-c3c[nH]c4ncc(Cl)cc34)nc21 [Compound B135] | < 1
26 | O=C(O)[C@@H]1C2CCC(CC2)C1n1cc(Cl)c2cnc(-c3c[nH]c4ncc(F)cc34)nc21 (stereo partly drawn) [Compound B138] | < 1
27 | O=C(O)[C@@H]1C2CCC(CC2)C1n1cc(F)c2cnc(-c3c[nH]c4ncc(F)cc34)nc21 (stereo partly drawn) [Compound B139] | 1 to 10
28 | O=C(O)[C@H]1C2CCC(CC2)[C@@H]1n1cc(Cl)c2cnc(-c3c[nH]c4ncccc34)nc21 [Compound B140] | < 1
29 | CNC(=O)[C@H]1C2CCC(CC2)[C@@H]1n1cc(Cl)c2cnc(-c3c[nH]c4ncc(F)cc34)nc21 [Compound B141] | 1 to 10
30 | O=C(O)[C@H]1C2CCC(CC2)[C@@H]1n1cc(-c2cccnc2)c2cnc(-c3c[nH]c4ncc(F)cc34)nc21 [Compound B142] | < 1
31 | O=C(O)[C@@H]1C2CCC(CC2)[C@H]1n1cc(-c2cccc(O)c2)c2cnc(-c3c[nH]c4ncc(F)cc34)nc21 [Compound B145] | < 1
32 | CNC(=O)CNC(=O)[C@H]1C2CCC(CC2)[C@@H]1n1cc(Cl)c2cnc(-c3c[nH]c4ncc(F)cc34)nc21 [Compound B146] | 1 to 10
33 | O=C(O)[C@@H]1C2CCC(CC2)[C@H]1n1cc(-c2ccncc2)c2cnc(-c3c[nH]c4ncc(F)cc34)nc21 [Compound B147] | 1 to 10
34 | COC(=O)N[C@H]1C2CCC(CC2)[C@@H]1n1cc(Cl)c2cnc(-c3c[nH]c4ncc(F)cc34)nc21 [Compound B149] | 1 to 10
35 | O=C(O)[C@@H]1C2CCC(CC2)[C@H]1n1cc(-c2ccccc2)c2cnc(-c3c[nH]c4ncc(F)cc34)nc21 [Compound B150] | 1 to 10
36 | O=C(O)[C@@H]1C2CCC(CC2)[C@H]1n1cc(C(F)(F)F)c2cnc(-c3c[nH]c4ncc(F)cc34)nc21 [Compound B151] | < 1
37 | O=C(O)[C@@H]1C2CCC(CC2)[C@H]1n1cc(C#CCC2CC2)c2cnc(-c3c[nH]c4ncc(F)cc34)nc21 [Compound B152] | 10 to 100
38 | O=C(O)[C@@H]1C2CCC(CC2)[C@H]1n1cc(C#CC2CC2)c2cnc(-c3c[nH]c4ncc(F)cc34)nc21 [Compound B153] | < 1
39 | CCOC(=O)[C@@H]1C2CCC(CC2)[C@H]1n1cc(C#CC2CC2)c2cnc(-c3c[nH]c4ncc(F)cc34)nc21 [Compound B154] | 10 to 100
40 | O=C(O)[C@@H]1C2CCC(CC2)[C@H]1n1cc(-c2ccc(O)cc2)c2cnc(-c3c[nH]c4ncc(F)cc34)nc21 [Compound B160] | 1 to 10
41 | O=C(O)[C@@H]1C2CCC(CC2)[C@H]1n1cc(-c2ccoc2)c2cnc(-c3c[nH]c4ncc(F)cc34)nc21 [Compound B161] | < 1
42 | O=C(O)[C@@H]1C2CCC(CC2)[C@H]1n1cc(-c2ccsc2)c2cnc(-c3c[nH]c4ncc(F)cc34)nc21 [Compound B162] | < 1
43 | Cc1cn([C@@H]2C3CCC(CC3)[C@H]2C(=O)O)c2nc(-c3c[nH]c4ncc(F)cc34)ncc12 [Compound B163] | < 1
44 | O=C(O)[C@@H]1C2CCC(CC2)[C@H]1n1cc(-c2ccn[nH]2)c2cnc(-c3c[nH]c4ncc(F)cc34)nc21 [Compound B164] | < 1

Row | Structure (SMILES) | IC50 [µM]
45 | O=C(O)[C@@H]1C2CCC(CC2)[C@H]1n1cc(-c2ccccc2O)c2cnc(-c3c[nH]c4ncc(F)cc34)nc21 [Compound B165] | 1 to 10
46 | CC(=O)N[C@H]1C2CCC(CC2)[C@@H]1n1cc(Cl)c2cnc(-c3c[nH]c4ncc(F)cc34)nc21 [Compound B166] | 10 to 100
47 | N[C@H]1C2CCC(CC2)[C@@H]1n1cc(Cl)c2cnc(-c3c[nH]c4ncc(F)cc34)nc21 [Compound B167] | 1 to 10
48 | CNC(=O)N[C@H]1C2CCC(CC2)[C@@H]1n1cc(Cl)c2cnc(-c3c[nH]c4ncc(F)cc34)nc21 [Compound B168] | 1 to 10
49 | O=C(O)[C@@H]1C2CCC(CC2)[C@H]1n1cc(-c2ccccn2)c2cnc(-c3c[nH]c4ncc(F)cc34)nc21 [Compound B169] | < 1
50 | COC(=O)[C@@H]1C2CCC(CC2)[C@H]1n1cc(-c2ccccc2O)c2cnc(-c3c[nH]c4ncc(F)cc34)nc21 [Compound B170] | 10 to 100
51 | CN(C)C(=O)N[C@H]1C2CCC(CC2)[C@@H]1n1cc(Cl)c2cnc(-c3c[nH]c4ncc(F)cc34)nc21 [Compound B171] | 1 to 10
52 | CC(C)(C)OC(=O)N[C@@H]1C2CCC(CC2)[C@H]1n1cc(Cl)c2cnc(-c3c[nH]c4ncc(F)cc34)nc21 [Compound B172] | > 100
53 | COC(=O)[C@@H]1C2CCC(CC2)[C@H]1n1cc(-c2ccn[nH]2)c2cnc(-c3c[nH]c4ncc(F)cc34)nc21 [Compound B173] | 1 to 10
54 | CCOC(=O)[C@@H]1C2CCC(CC2)[C@H]1n1cc(-c2cn[nH]c2)c2cnc(-c3c[nH]c4ncc(F)cc34)nc21 [Compound B174] | 10 to 100
55 | CC(C)c1cn([C@@H]2C3CCC(CC3)[C@H]2C(=O)O)c2nc(-c3c[nH]c4ncc(F)cc34)ncc12 [Compound B175] | < 1
56 | CCOC(=O)[C@@H]1C2CCC(CC2)[C@H]1n1cc(-c2ccncc2)c2cnc(-c3c[nH]c4ncc(F)cc34)nc21 [Compound B176] | 10 to 100
57 | CCOC(=O)[C@@H]1C2CCC(CC2)[C@H]1n1cc(C(F)(F)F)c2cnc(-c3c[nH]c4ncc(F)cc34)nc21 [Compound B177] | 10 to 100
58 | CCOC(=O)[C@@H]1C2CCC(CC2)[C@H]1n1cc(-c2ccc(O)cc2)c2cnc(-c3c[nH]c4ncc(F)cc34)nc21 [Compound B178] | 10 to 100
59 | O=C(O)[C@@H]1C2CCC(CC2)[C@H]1n1cc(-c2cn[nH]c2)c2cnc(-c3c[nH]c4ncc(F)cc34)nc21 [Compound B179] | < 1
60 | CCOC(=O)[C@@H]1C2CCC(CC2)[C@H]1n1cc(C(C)C)c2cnc(-c3c[nH]c4ncc(F)cc34)nc21 [Compound B180] | 10 to 100
61 | CCOC(=O)[C@@H]1C2CCC(CC2)[C@H]1n1cc(-c2cccnc2)c2cnc(-c3c[nH]c4ncc(F)cc34)nc21 [Compound B181] | 1 to 10
62 | CCOC(=O)[C@@H]1C2CCC(CC2)[C@H]1n1cc(-c2cccc(O)c2)c2cnc(-c3c[nH]c4ncc(F)cc34)nc21 [Compound B182] | 1 to 10
63 | CCOC(=O)[C@@H]1C2CCC(CC2)[C@H]1n1cc(-c2ccsc2)c2cnc(-c3c[nH]c4ncc(F)cc34)nc21 [Compound B183] | 10 to 100
64 | CCOC(=O)[C@@H]1C2CCC(CC2)[C@H]1n1cc(CCc2ccccn2)c2cnc(-c3c[nH]c4ncc(F)cc34)nc21 [Compound B184] | 10 to 100
65 | CCOC(=O)[C@H]1C2CCC(CC2)[C@@H]1n1cc(C#CCCSC)c2cnc(-c3c[nH]c4ncc(F)cc34)nc21 [Compound B185] | > 100
66 | O=C(O)[C@@H]1C2CCC(CC2)[C@H]1n1cc(CCc2ccccn2)c2cnc(-c3c[nH]c4ncc(F)cc34)nc21 [Compound B186] | < 1
